Laboratory results taken from article PMC11278660, “Molecular, Genetic, and Biochemical Characterization of OXA-484 Carbapenemase, a Difficult-to-Detect R214G Variant of OXA-181” (Microorganisms, 2024).

tested on: T1, OXA-484; assay: inhibition of beta-lactam hydrolysis; assay type: biochemical, Escherichia coli; conditions: reporter substrate not stated
T1 construct: gene blaOXA-484; mature beta-lactamase AA20-265 in pET41b(+), expressed in E. coli BL21(DE3), purified; gene 798 bp; natural variant equal to OXA-181 with R214G

Row | SMILES | IC50 [µM]
1 | O=C(O)[C@H]1/C(=C/CO)O[C@@H]2CC(=O)N21 [clavulanic acid] | 19
2 | C[C@]1(Cn2ccnn2)[C@H](C(=O)O)N2C(=O)C[C@H]2S1(=O)=O [tazobactam] | 1.09

tested on: T1, OXA-484; assay: UV spectrophotometry, initial rates, Eadie-Hofstee plot; assay type: biochemical, Escherichia coli; conditions: 30 °C, 100 mM sodium phosphate, pH 7.0; read-out: Km (μM) / OXA-181
Description: UV spectrophotometry, initial rates, Eadie-Hofstee plot on OXA-484

Row | SMILES | Km [µM]
3 | CO/N=C(\C(=O)N[C@@H]1C(=O)N2C(C(=O)O)=C(COC(C)=O)CS[C@H]12)c1csc(N)n1 [Cefotaxime] | > 1000

same assay, conditions: 30 °C, 100 mM sodium phosphate, pH 7.0; read-out: Km (μM) / OXA-484

Row | SMILES | Km [µM]
4 | C[C@@H](O)[C@H]1C(=O)N2C(C(=O)O)=C(SCCN=CN)C[C@H]12 [Imipenem] | 6 ± 2.1
5 | C[C@@H](O)[C@H]1C(=O)N2C(C(=O)O)=C(S[C@@H]3CN[C@H](C(=O)N(C)C)C3)[C@H](C)[C@H]12 [Meropenem] | 263 ± 9.4
6 | CC(=O)OCC1=C(C(=O)O)N2C(=O)[C@@H](NC(=O)Cc3cccs3)[C@H]2SC1 [Cefalotin] | 37 ± 2.6
7 | C[C@@H](O)[C@H]1C(=O)N2C(C(=O)O)=C(S[C@@H]3CN[C@H](C(=O)Nc4cccc(C(=O)O)c4)C3)[C@H](C)[C@H]12 [Ertapenem] | 27 ± 1.2
8 | CC1(C)S[C@@H]2[C@H](NC(=O)Cc3ccccc3)C(=O)N2[C@H]1C(=O)O [Benzylpenicillin] | 33 ± 1.9
9 | CO[C@@]1(NC(=O)C(C(=O)O)c2ccsc2)C(=O)N2[C@@H](C(=O)O)C(C)(C)S[C@@H]21 (stereo partly shown) [Temocillin] | 178 ± 25.1
10 | CC1(C)S[C@@H]2[C@H](NC(=O)[C@H](N)c3ccccc3)C(=O)N2[C@H]1C(=O)O [Ampicillin] | 653 ± 72.2
